Source: article PMC10023787, “Trio-pharmacophore DNA-encoded chemical library for simultaneous selection of fragments and linkers” (Nature Communications, 2023)
“Also recorded” adds a separate entry of the source. Like-named read-outs stand apart in the source and are kept apart here.

Assays:
MMP-2 = biological target: T1, MMP-2 (Homo sapiens, UniProt P08253); assay: MMP-2 inhibition assay (fluorogenic peptide substrate); assay type: biochemical; details: for remaining activity at 0.0156098 µM: fragment concentration 0.0156098 µM; for remaining activity at 0.0780488 µM: fragment concentration 0.0780488 µM; for remaining activity at 0.390244 µM: fragment concentration 0.390244 µM; for remaining activity at 1.95122 µM: fragment concentration 1.95122 µM; for remaining activity at 9.7561 µM: fragment concentration 9.7561 µM; for remaining activity at 48.7805 µM: fragment concentration 48.7805 µM; for remaining activity at 243.902 µM: fragment concentration 243.902 µM
T1 construct: purchased Sino Biological 10082-HNAH
T1 sequence (P08253 110-660): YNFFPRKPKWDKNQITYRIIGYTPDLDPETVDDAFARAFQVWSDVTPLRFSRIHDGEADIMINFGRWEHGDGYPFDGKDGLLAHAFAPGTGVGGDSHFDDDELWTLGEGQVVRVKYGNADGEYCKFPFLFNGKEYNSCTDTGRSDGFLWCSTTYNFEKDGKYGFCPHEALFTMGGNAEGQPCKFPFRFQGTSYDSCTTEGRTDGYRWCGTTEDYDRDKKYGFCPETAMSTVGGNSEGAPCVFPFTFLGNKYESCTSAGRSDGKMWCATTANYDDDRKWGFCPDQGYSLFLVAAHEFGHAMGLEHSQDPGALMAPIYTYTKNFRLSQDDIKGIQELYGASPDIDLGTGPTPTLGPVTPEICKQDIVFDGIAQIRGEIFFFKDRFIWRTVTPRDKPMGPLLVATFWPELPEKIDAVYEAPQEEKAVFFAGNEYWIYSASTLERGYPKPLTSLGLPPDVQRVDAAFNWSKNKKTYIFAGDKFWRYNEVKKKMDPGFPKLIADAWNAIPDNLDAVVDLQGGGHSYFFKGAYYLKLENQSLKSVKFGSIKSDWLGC
In short: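 Human proMMP-2 and proMMP-9 were activated with 1 mM APMA for 2 h at 37 °C, then used at 6.5 nM (MMP-2) or 10 nM (MMP-9) final in Tris/NaCl/CaCl2/Brij 35 buffer, pH 7.5. After 30 min preincubation with compound at RT, 25 μM FRET peptide substrate was added and fluorescence (ex 280/em 360 nm) followed for 30 min. IC50 came from logistic fits of Vmax.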

MMP-9 = biological target: T2, MMP-9 (Homo sapiens, UniProt P14780); assay: Dynamic dual-pharmacophore DEL selection against MMP-9, NGS decoding; assay type: binding; details: MMP9 selection
T2 construct: purchased Sino Biological 10327-HNAH
T2 sequence (P14780 107-707 limits assumed): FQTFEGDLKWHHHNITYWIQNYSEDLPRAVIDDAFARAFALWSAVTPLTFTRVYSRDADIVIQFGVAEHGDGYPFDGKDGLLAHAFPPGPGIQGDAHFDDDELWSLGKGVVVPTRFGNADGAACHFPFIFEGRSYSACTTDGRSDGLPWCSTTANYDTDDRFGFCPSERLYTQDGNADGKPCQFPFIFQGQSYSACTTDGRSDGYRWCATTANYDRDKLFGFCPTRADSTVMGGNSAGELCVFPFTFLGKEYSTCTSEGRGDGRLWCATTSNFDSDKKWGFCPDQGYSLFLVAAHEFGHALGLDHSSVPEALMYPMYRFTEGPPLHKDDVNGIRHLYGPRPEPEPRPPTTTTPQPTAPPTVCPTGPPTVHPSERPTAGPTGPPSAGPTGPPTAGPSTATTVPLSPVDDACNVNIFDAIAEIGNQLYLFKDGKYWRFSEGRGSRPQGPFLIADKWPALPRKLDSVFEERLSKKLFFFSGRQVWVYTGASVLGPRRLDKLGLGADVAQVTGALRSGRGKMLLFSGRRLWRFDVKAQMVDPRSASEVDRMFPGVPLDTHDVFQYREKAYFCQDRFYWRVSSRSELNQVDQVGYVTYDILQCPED
Description: Matrix metalloproteinases (MMPs) are zinc-dependent endopeptidases capable of degrading and remodeling extracellular matrix components[46],[47]. They are attractive therapeutic targets as high expression levels were detected in various diseases, such as inflammatory diseases, and at different stages of cancers, including metastasis, invasion, and angiogenesis[47]–[53]. As shown in Supplementary Fig. 3c, we performed selections against the two gelatinases (human MMP-2 and human MMP-9) to identify binding fragments for later design and synthesis of small molecule inhibitors. After selection, the three sub-libraries were decoded, and the enrichment was calculated by dividing the post-selection fraction (count/total counts) by the pre-selection fraction (Fig. 4a and Supplementary Fig. 13).
4 µg of MMP-2/MMP-9 was dissolved in 100 µl of selection buffer containing 25 mM Tris-base, 10 mM CaCl2, 150 mM NaCl, 0.05% Tween 20, pH 7.5. 10 µl of 4-Aminophenylmercuric acetate (APMA) (100 mM) solution was added to the protein solution and incubated at 37 °C for 1 h. After activation, the solution was added on top of 40 µl pre-washed Ni-NTA resin and incubated for 30 min on a rotary shaker. The supernatant was discarded, and the resin was washed three times with the selection buffer.
For each independent selection, three sub-libraries were mixed in the selection buffer with a final concentration of 40 nM of each sub-library in 100 µl. The mixture was heat denatured at 90 °C for 1 min and slowly cooled down to allow the formation of the trio-pharmacophore library. The dynamic dual-pharmacophore DEL was provided by DyNAbind GmbH (Merck, DYNA001).
The assembled library was incubated with the protein-bound solid support for 2 h at RT on a rotary shaker. In parallel, selection on bare solid support served as the negative control to exclude promiscuous binders on the resin. After panning, the supernatant was discarded, and the resin was washed three times with 1 ml selection buffer. Finally, 100 µl of 50 mM Tris buffer, pH 7.4 was added to resuspend the resin and the resin was incubated at 95 °C for 5 min to denature the protein, release, and collect the bound library members.
The eluted library members were subjected to sample preparation for NGS. NGS preparation was achieved by two-step PCR. First, the individual selection was indexed using primers containing unique sequences corresponding to each selection. The amplified product was purified from 2% agarose gel. Second, the purified DNA from all selections were pooled in equal amount and subjected to the 2nd PCR step to attach sequences compatible with the NGS flow cell and the sequencing primers. NGS was performed by Novogene UK with Novaseq 6000. Raw data files (fastq files) obtained were decoded using a custom python script and excel. The sequence reads corresponding to each sample was retrieved by searching for the correct index unique to each selection. Then, the code region was extracted from each sequence and assigned to the corresponding identity. The count of each code in each selection sample was obtained by looping through the total reads and counting the occurrence of each code. The enrichment fold of each compound was calculated by first, dividing the count by the total count to get the abundance, second, the abundance after the selection was divided by the abundance of pre-selection to reflect the distribution change of the compound. Next, the enrichment fold was plotted against the count for each member of the library to give the scatter plots as in Fig. 4.

[1] = Figure 5a, read-out: Normalized activity (Mean)
[2] = Figure 5a, fragment concentration 1219.51 µM, read-out: Normalized activity (Mean)
[3] = MMP-2, concentration 0.08 µM, read-out: Mean (MMP-2, Supplementary fig 16)
[4] = MMP-2, concentration 0.0156 µM, read-out: Mean (dose-response, Supplementary fig 17)
[5] = MMP-2, concentration 0.08 µM, read-out: Mean (dose-response, Supplementary fig 17)
[6] = MMP-2, concentration 0.39 µM, read-out: Mean (dose-response, Supplementary fig 17)
[7] = MMP-2, concentration 1.95 µM, read-out: Mean (dose-response, Supplementary fig 17)
[8] = MMP-2, concentration 9.76 µM, read-out: Mean (dose-response, Supplementary fig 17)
[9] = MMP-2, concentration 48.78 µM, read-out: Mean (dose-response, Supplementary fig 17)
[10] = MMP-2, concentration 243.90 µM, read-out: Mean (dose-response, Supplementary fig 17)
[11] = MMP-2, concentration 1219.51 µM, read-out: Mean (dose-response, Supplementary fig 17)

NCc1c[nH]nn1 [Compound 787]
remaining activity at 0.0156098 µM (MMP-2; [1]): 101%
remaining activity at 0.0780488 µM (MMP-2; [1]): 93.4%
remaining activity at 0.390244 µM (MMP-2; [1]): 108%
remaining activity at 1.95122 µM (MMP-2; [1]): 92.2%
remaining activity at 9.7561 µM (MMP-2; [1]): 105%
remaining activity at 48.7805 µM (MMP-2; [1]): 96.9%
remaining activity at 243.902 µM (MMP-2; [1]): 87.8%
remaining activity at 1219.51 µM (MMP-2; [2]): 57.1%
remaining activity at 0.0156 µM (MMP-2; MMP-2, concentration 0.0156 µM, read-out: Mean (MMP-2, Supplementary fig 16)): 101%
remaining activity at 0.08 µM (MMP-2; [3]): 93.5%
remaining activity at 0.39 µM (MMP-2; MMP-2, concentration 0.39 µM, read-out: Mean (MMP-2, Supplementary fig 16)): 108%
remaining activity at 1.95 µM (MMP-2; MMP-2, concentration 1.95 µM, read-out: Mean (MMP-2, Supplementary fig 16)): 92.2%
remaining activity at 9.76 µM (MMP-2; MMP-2, concentration 9.76 µM, read-out: Mean (MMP-2, Supplementary fig 16)): 105%
remaining activity at 48.78 µM (MMP-2; MMP-2, concentration 48.78 µM, read-out: Mean (MMP-2, Supplementary fig 16)): 96.9%
remaining activity at 243.9 µM (MMP-2; MMP-2, concentration 243.90 µM, read-out: Mean (MMP-2, Supplementary fig 16)): 87.8%
remaining activity at 0.0156 µM (MMP-2; MMP-2, concentration 0.0156 µM, read-out: Mean (MMP-2 dose-response, Supplementary fig 15)): 101%
remaining activity at 0.0156 µM (MMP-2; [4]): 101%
remaining activity at 0.08 µM (MMP-2; MMP-2, concentration 0.08 µM, read-out: Mean (MMP-2 dose-response, Supplementary fig 15)): 93.5%
remaining activity at 0.08 µM (MMP-2; [5]): 93.5%
remaining activity at 0.39 µM (MMP-2; MMP-2, concentration 0.39 µM, read-out: Mean (MMP-2 dose-response, Supplementary fig 15)): 108%
remaining activity at 0.39 µM (MMP-2; [6]): 108%
remaining activity at 1.95 µM (MMP-2; MMP-2, concentration 1.95 µM, read-out: Mean (MMP-2 dose-response, Supplementary fig 15)): 92.2%
remaining activity at 1.95 µM (MMP-2; [7]): 92.2%
remaining activity at 9.75 µM (MMP-2; MMP-2, concentration 9.75 µM, read-out: Mean (MMP-2 dose-response, Supplementary fig 15)): 105%
remaining activity at 9.76 µM (MMP-2; [8]): 105%
remaining activity at 48.76 µM (MMP-2; MMP-2, concentration 48.76 µM, read-out: Mean (MMP-2 dose-response, Supplementary fig 15)): 96.9%
remaining activity at 48.78 µM (MMP-2; [9]): 96.9%
remaining activity at 243.8 µM (MMP-2; MMP-2, concentration 243.80 µM, read-out: Mean (MMP-2 dose-response, Supplementary fig 15)): 87.8%
remaining activity at 243.9 µM (MMP-2; [10]): 87.8%
remaining activity at 1219.51 µM (MMP-2; [11]): 57.1%
MMP9 3L Enrichment Fold (MMP-9; 3L library (Supplementary fig 13)): 3.649
MMP9 3L Count (MMP-9; 3L library, sequence count (Supplementary fig 13)): 3684
MMP9 5L Enrichment Fold (MMP-9; 5L library (Supplementary fig 13)): 0.7364
MMP9 5L Count (MMP-9; 5L library, sequence count (Supplementary fig 13)): 628

O=C(O)Cn1cnc2c(oc3ccccc32)c1=O [Compound 182]
remaining activity at 0.0152381 µM (MMP-2; Figure 5a, fragment concentration 0.0152381 µM, read-out: Normalized activity (Mean)): 97.3%
remaining activity at 0.0761905 µM (MMP-2; Figure 5a, fragment concentration 0.0761905 µM, read-out: Normalized activity (Mean)): 97.1%
remaining activity at 0.380952 µM (MMP-2; Figure 5a, fragment concentration 0.380952 µM, read-out: Normalized activity (Mean)): 98.7%
remaining activity at 1.90476 µM (MMP-2; Figure 5a, fragment concentration 1.90476 µM, read-out: Normalized activity (Mean)): 98.1%
remaining activity at 9.52381 µM (MMP-2; Figure 5a, fragment concentration 9.52381 µM, read-out: Normalized activity (Mean)): 87.4%
remaining activity at 47.619 µM (MMP-2; Figure 5a, fragment concentration 47.619 µM, read-out: Normalized activity (Mean)): 71.6%
remaining activity at 238.095 µM (MMP-2; Figure 5a, fragment concentration 238.095 µM, read-out: Normalized activity (Mean)): 16.9%
remaining activity at 1190.48 µM (MMP-2; Figure 5a, fragment concentration 1190.48 µM, read-out: Normalized activity (Mean)): 0%
remaining activity at 0.0152 µM (MMP-2; MMP-2, concentration 0.0152 µM, read-out: Mean (MMP-2, Supplementary fig 16)): 97.3%
remaining activity at 0.08 µM (MMP-2; [3]): 97.1%
remaining activity at 1.9 µM (MMP-2; MMP-2, concentration 1.90 µM, read-out: Mean (MMP-2, Supplementary fig 16)): 98.2%
remaining activity at 9.52 µM (MMP-2; MMP-2, concentration 9.52 µM, read-out: Mean (MMP-2, Supplementary fig 16)): 87.4%
remaining activity at 47.62 µM (MMP-2; MMP-2, concentration 47.62 µM, read-out: Mean (MMP-2, Supplementary fig 16)): 71.6%
remaining activity at 238.1 µM (MMP-2; MMP-2, concentration 238.10 µM, read-out: Mean (MMP-2, Supplementary fig 16)): 16.9%
remaining activity at 0.38 µM (MMP-2; MMP-2, concentration 0.38 µM, read-out: Mean (MMP-2, Supplementary fig 16)): 98.7%
IC50 (MMP-2; mean ± SE, n.d: not detected, Fig. 5d unit inferred, µM, read-out: IC50): 95.8 µM
Enrichment Fold (MMP-9; 3L sub-library): 0.7692
Count (MMP-9; 3L sub-library, sequence count per compound ID): 816
Enrichment Fold (MMP-9; 5L sub-library): 1.565
Count (MMP-9; 5L sub-library, sequence count per compound ID): 4821

O=C(O)CNC(=O)NC12CC3CC(CC(C3)C1)C2 [Compound 66]
remaining activity at 0.0156098 µM (MMP-2; [1]): 92.7%
remaining activity at 0.0780488 µM (MMP-2; [1]): 95.8%
remaining activity at 0.390244 µM (MMP-2; [1]): 93.9%
remaining activity at 1.95122 µM (MMP-2; [1]): 110%
remaining activity at 9.7561 µM (MMP-2; [1]): 93.7%
remaining activity at 48.7805 µM (MMP-2; [1]): 92.7%
remaining activity at 243.902 µM (MMP-2; [1]): 92.2%
remaining activity at 1219.51 µM (MMP-2; [2]): 85.5%
remaining activity at 0.0156 µM (MMP-2; [4]): 92.7%
remaining activity at 0.08 µM (MMP-2; [5]): 95.8%
remaining activity at 0.39 µM (MMP-2; [6]): 93.9%
remaining activity at 1.95 µM (MMP-2; [7]): 110%
remaining activity at 9.76 µM (MMP-2; [8]): 93.7%
remaining activity at 48.78 µM (MMP-2; [9]): 92.7%
remaining activity at 243.9 µM (MMP-2; [10]): 92.2%
remaining activity at 1219.51 µM (MMP-2; [11]): 85.5%
inhibitory effect (MMP-2; in words): No inhibitory effects could be measured; also recorded: did not exhibit meaningful activity
Enrichment Fold (MMP-9; 3L sub-library): 0.3958
Count (MMP-9; 3L sub-library, NGS sequence count): 87
Enrichment Fold (MMP-9; 5L sub-library): 1.238
Count (MMP-9; 5L sub-library, NGS sequence count): 2487
